Measurements: US10759831B2, “Peptide compound, production method therefor, and use thereof” (iNtRON Biotechnology, Inc., priority 2014, dated 2020)
pIC50: −log10 of the molar value. Where two headings read alike, the source gives them in different places.

What was measured:
[1] = test system: breast cancer cell line MDA-MB-231; assay: SRB cell viability assay, breast cancer cell line MDA-MB-231; format: cell-based; settings: MDA-MB-231, 72 hours, read-out: Cell growth inhibition concentration (IC50)
Description: (§1) Regarding a lung cancer cell line A549 (Korean Cell line Bank), a colon cancer cell line HCT116 (ATCC), a stomach cancer cell line SNU638 (Korean Cell Line Bank), a liver cancer cell line SK-HEP-1 (Korean Cell line Bank), and a breast cancer cell line MDA-MB-231 (Korean Cell line Bank), a sulforhodamine B (SRB) assay which is a method of measuring cell viability was used for measuring apoptosis effects of Asperphenin.
(§2) In detail, 190 μl of a cell suspension at a concentration of 3.5×10^4 cells/ml was inoculated in each well of a 96-well microplate. 0.8 μM, 4 μM, 20 μM, or 100 μM of Asperphenin was added to the cell culture medium, and cultured at a temperature of 37° C. for 72 hours under the condition of 5% CO2. After incubation, 50 μl of 50% (v/v) trichloroacetic acid solution (Sigma Aldrich) was added to each well, and then, incubated at a temperature of 4° C. for 30 minutes, to thereby fix the cells thereto. The fixed cells were washed with water five times, and then, dried in the air.
(§3) Next, 80 μl of a 0.4% (w/v) SRB aqueous solution (Sigma Aldrich) containing 1% (v/v) acetic acid (DUKSAN) was added to each well, incubated at room temperature for 1 hour to stain cells therein, and the stained cells washed with water and dried. The cells were dissolved by adding 200 μl of 10 mM Tris (pH 10.0) (Sigma Aldrich) to each well, and then, the number of living cells was calculated by measuring the absorbance thereof at 515 nm. The concentration of the compound inhibiting cell growth to 50% based on the number of the living cells, i.e., 50% inhibition concentration (IC50) was calculated, and the results are shown in Table 3. Here, as a positive control, etoposide (Sigma Aldrich) was used.

[2] = test system: liver cancer cell line SK-HEP-1; assay: SRB cell viability assay, liver cancer cell line SK-HEP-1; format: cell-based; settings: SK-HEP-1, 72 hours, read-out: Cell growth inhibition concentration (IC50)
Description: as §1, §2, §3

[3] = test system: stomach cancer cell line SNU638; assay: SRB cell viability assay, stomach cancer cell line SNU638; format: cell-based; settings: SNU638, 72 hours, read-out: Cell growth inhibition concentration (IC50)
Description: as §1, §2, §3

[4] = test system: lung cancer cell line A549; assay: SRB cell viability assay, lung cancer cell line A549; format: cell-based; settings: A549, 72 hours, read-out: Cell growth inhibition concentration (IC50)
Description: as §1, §2, §3

[5] = test system: colon cancer cell line HCT116; assay: SRB cell viability assay, colon cancer cell line HCT116; format: cell-based
Description: as §1, §2, §3
From the colon cancer cell lines HCT116 (ATCC), HCT15 (Korean Cell Line Bank), LS174T (Korean Cell Line Bank), RKO(ATCC), and SW480(ATCC), cell growth inhibition concentrations (IC50, μM) were calculated as described in Example 2-1, and the results are shown in Table 4. Here, as a positive control, paclitaxel (Sigma Aldrich) was used.

[6] = Physicochemical characterization
[7] = test system: RKO cells; assay: Combination of Asperphenin B with other anticancer drugs, SRB cell viability; format: cell-based, human; settings: 48 hours; for Effects of cell growth inhibition in combination with Asperphenin B compared to the anticancer drug alone: FIGS. 7A to 7C; for Effect of administration in combination: <1 synergistic, =1 additive, >1 antagonistic
Description: RKO cells diluted in a medium containing 10% (v/v) FBS were inoculated in each well of a 96-well microplate so that each plate included 7×10^3 cells, and then, the cells were cultured for about 24 hours at a temperature of 37° C. under the condition of 5% CO2. In the medium containing 10% (v/v) FBS, irinotecan (Sigma Aldrich), 5-fluorouracil (Sigma Aldrich), or gemsitabin (Sigma Aldrich) was mixed with […] at a ratio of 1:1, and then, the mixture was added to the cultured cells. Then, the cells were cultured for 48 hours at a temperature of 37° C. under the conditions of 5% CO2. […] In addition, the effects of the administration in combination were measured according to Equation 1, and results thereof are shown in Table 8. Effects of administration in combination=D1/(Dx)1+D2/(Dx)2 [Equation 1] D1: Concentration of […] with expected effect in administration in combination D2: Concentration of other anticancer drugs with expected effect in administration in combination (Dx)1: Concentration of […] with expected effect in administration of […] only (Dx)2: Concentration of other anticancer drugs with expected effect in administration of other anticancer drugs only […]

[8] = test system: colon cancer cell line HCT15; assay: SRB cell viability assay, colon cancer cell line HCT15; format: cell-based; settings: Homo sapiens, HCT-15, read-out: Growth inhibition value of cancer cell (IC50)
Description: as §2
(§4) Next, 80 μl of a 0.4% (w/v) SRB aqueous solution (Sigma Aldrich) containing 1% (v/v) acetic acid (DUKSAN) was added to each well, incubated at room temperature for 1 hour to stain cells therein, and the stained cells washed with water and dried. The cells were dissolved by adding 200 μl of 10 mM Tris (pH 10.0) (Sigma Aldrich) to each well, and then, the number of living cells was calculated by measuring the absorbance thereof at 515 nm. […]
(§5) From the colon cancer cell lines HCT116 (ATCC), HCT15 (Korean Cell Line Bank), LS174T (Korean Cell Line Bank), RKO(ATCC), and SW480(ATCC), cell growth inhibition concentrations (IC50, μM) were calculated as described in Example 2-1, and the results are shown in Table 4. […]

[9] = test system: colon cancer cell line RKO; assay: SRB cell viability assay, colon cancer cell line RKO; format: cell-based; settings: Homo sapiens, read-out: Growth inhibition value of cancer cell (IC50)
Description: as §2, §4, §5

[10] = test system: colon cancer cell line SW480; assay: SRB cell viability assay, colon cancer cell line SW480; format: cell-based; settings: Homo sapiens, read-out: Growth inhibition value of cancer cell (IC50)
Description: as §2, §4, §5

[11] = test system: colon cancer cell line LS174T; assay: SRB cell viability assay, colon cancer cell line LS174T; format: cell-based; settings: Homo sapiens, read-out: Growth inhibition value of cancer cell (IC50)
Description: as §2, §4, §5

For `CCCCCCCCC[C@@H](O)CC(=O)N[C@@H](CC(N)=O)C(=O)N[C@@H](CCC(N)=O)C(=O)N[C@@H](CC(=O)c1cc(C)cc(O)c1C(=O)c1c(O)cccc1O)CC(C)C` [Asperphenin A], the pIC50 [1] was 5.51, the pIC50 [2] was 5.64 and the pIC50 [3] was 5.24. For the same compound, the pIC50 [4] was 4.84, the pIC50 ([5]; HCT116, 72 hours, Table 3, read-out: Cell growth inhibition concentration (IC50)) was 5.77 and the “Solubility in organic solvent” value ([6]; methanol and acetone) was “well dissolved in a moderate organic solvent, such as methanol and acetone”. For the same compound, the Stability ([6]; room temperature) was “stable at room temperature”.

For `CCc1c2c(nc3ccc(OC(=O)N4CCC(N5CCCCC5)CC4)cc13)-c1cc3c(c(=O)n1C2)COC(=O)[C@]3(O)CC` [Irinotecan, irinotecan], the “Effects of cell growth inhibition in combination with Asperphenin B compared to the anticancer drug alone” value [7] was “increased”, the “Effect of administration in combination” value ([7]; irinotecan 1.25 μM + Asperphenin B 2.5 μM) was 0.792 and the “Effect of administration in combination” value ([7]; irinotecan 2.5 μM + Asperphenin B 2.5 μM) was 0.751. For the same compound, the “Effect of administration in combination” value ([7]; irinotecan 5 μM + Asperphenin B 2.5 μM) was 0.691 and the “Effect of administration in combination” value ([7]; irinotecan 10 μM + Asperphenin B 2.5 μM) was 0.650.

In the case of `Nc1ccn([C@@H]2O[C@H](CO)[C@@H](O)C2(F)F)c(=O)n1` [Gemsitabin, gemsitabin], the “Effects of cell growth inhibition in combination with Asperphenin B compared to the anticancer drug alone” value [7] was “increased”, the “Effect of administration in combination” value ([7]; gemsitabin 0.32 μM + Asperphenin B 8 μM) was 0.907 and the “Effect of administration in combination” value ([7]; gemsitabin 1.6 μM + Asperphenin B 8 μM) was 0.882. For the same compound, the “Effect of administration in combination” value ([7]; gemsitabin 8 μM + Asperphenin B 8 μM) was 0.801 and the “Effect of administration in combination” value ([7]; gemsitabin 40 μM + Asperphenin B 8 μM) was 0.714.

In the case of `O=c1[nH]cc(F)c(=O)[nH]1` [5-fluorouracil], the “Effect of administration in combination” value ([7]; 5-fluorouracil 0.08 μM + Asperphenin B 8 μM) was 0.863, the “Effect of administration in combination” value ([7]; 5-fluorouracil 0.4 μM + Asperphenin B 8 μM) was 0.852 and the “Effect of administration in combination” value ([7]; 5-fluorouracil 2 μM + Asperphenin B 8 μM) was 0.786. For the same compound, the “Effect of administration in combination” value ([7]; 5-fluorouracil 10 μM + Asperphenin B 8 μM) was 0.765 and the “Effects of cell growth inhibition in combination with Asperphenin B compared to the anticancer drug alone” value [7] was “increased”.

In the case of `CC(=O)O[C@H]1C(=O)[C@@]2(C)[C@H]([C@H](OC(=O)c3ccccc3)[C@]3(O)C[C@H](OC(=O)[C@H](O)[C@@H](NC(=O)c4ccccc4)c4ccccc4)C(C)=C1C3(C)C)[C@]1(OC(C)=O)CO[C@@H]1C[C@@H]2O` [Paclitaxel, paclitaxel, reference compound], the pIC50 [8] was < 7.00, the pIC50 [9] was 9.68 and the pIC50 [10] was < 7.00. It also gave a pIC50 [11] of 9.34 and a pIC50 ([5]; Homo sapiens, HCT-116, HCT116, Table 4, read-out: Growth inhibition value of cancer cell (IC50)) of 9.38.

Work on `COc1cc([C@@H]2c3cc4c(cc3[C@@H](O[C@@H]3O[C@@H]5CO[C@@H](C)O[C@H]5[C@H](O)[C@H]3O)[C@H]3COC(=O)[C@H]23)OCO4)cc(OC)c1O` [Etoposide, etoposide, reference compound] yielded a pIC50 ([1]; Homo sapiens) of 4.97, a pIC50 ([2]; Homo sapiens, SK-HEP1) of 6.22 and a pIC50 ([3]; Homo sapiens, SNU-638) of 6.10. For the same compound, the pIC50 ([4]; Homo sapiens) was 6.15 and the pIC50 ([5]; Homo sapiens, HCT-116, HCT116, 72 hours, Table 3, read-out: Cell growth inhibition concentration (IC50)) was 5.72.
